# US7262177B2, “Conjugates of glycosylated/galactosylated peptide, bifunctional linker, and nucleotidic monomers/polymers, and related compositions and methods of use” (priority 2000, dated 2007)
# Values joined by “and” are separate entries in the source; they are usually repeats but may differ in a detail not shown here. Identical values can stand only once.
# Tests used:
# [1] = test system: Hep G2 cells; assay: Cellular uptake of 5FU 1-mer conjugates by Hep G2 cells; type: cell-based, human
# Description: Hep G2 cells were passaged into 2 cm^2 wells and grown in RPMI 1640 medium, which was supplemented with L-glutamine (10-040, CV) to a density of 0.3×10^6 to 0.4×10^6 cells per well (48-well cluster plate, Costar, Cambridge, Mass.). […] Then, an aliquot of the medium was saved for scintillation counting and the remainder of the medium aspirated from the well. The cells were washed with D-PBS (2×0.5 ml), treated with 0.25% trypsin (37° C., 2 minutes; trypsin prepared in HBSS with 1.0 mM EDTA) and suspended in fresh growth medium containing 10% FCS. The suspended cells were layered over silicon oil (0.5 ml) in a 1.7 ml conical microcentrifuge tube and pelleted by centrifugation at 14,000 rpm (12,000 g) for 30 seconds. The supernatant was carefully decanted and the cell pellet was lysed with 100 μl of a solution containing 0.5% NP 40, 100 mM sodium chloride, 14 mM Tris/HCl and 30% acetonitrile. The amount of radioactivity, and by inference the amount of neoglycoconjugate or oligomer associated with the cell lysate, was determined by scintillation counting.
# [2] = Serum stability of po 1-mer conjugate, HPLC method (a), column 1; type: in vitro ADME; conditions: 37° C.; for Average Peak area / Trial Peak area: human serum
# Description: Studies were carried out at physiological conditions. The analyses were accomplished using reversed-phase HPLC and PAGE methods. The raw data are presented in table format (Tables 1, 2 and 3). The serum half-life calculated is t1/2=1/k (0.693), derived from the [A]=[A0]e^−kt, where [A0] is the original amount of substrate, [A] is the measured substrate level, t is time (min), and k is the first-order rate constant.
# (a) Reaction Conditions: 50 μl of human serum were added to 24 nmoles of HPLC purified po 1-mer Conjugate and incubated at 37° C. for allotted time periods (0 min, 60 min, 180 min, 360 min). Column 1: flow 1.0 ml/min, Rainin MicroSorb C18 reversed-phase column HPLC gradient: 100% NH4OAc for 10 min, then 0→100% CH3CN in 25 min. (0.1 M NH4OAc) (Table 1).
# [3] = target: T1, TS (Mus musculus, UniProt P07607); assay: TS activity in liver of xenografted mice; type: in vivo, CD-1 nude mice; conditions: treated
# T1 construct: from tissue; host or cells: liver of CD-1 nude mice
# T1 sequence (P07607 whole entry): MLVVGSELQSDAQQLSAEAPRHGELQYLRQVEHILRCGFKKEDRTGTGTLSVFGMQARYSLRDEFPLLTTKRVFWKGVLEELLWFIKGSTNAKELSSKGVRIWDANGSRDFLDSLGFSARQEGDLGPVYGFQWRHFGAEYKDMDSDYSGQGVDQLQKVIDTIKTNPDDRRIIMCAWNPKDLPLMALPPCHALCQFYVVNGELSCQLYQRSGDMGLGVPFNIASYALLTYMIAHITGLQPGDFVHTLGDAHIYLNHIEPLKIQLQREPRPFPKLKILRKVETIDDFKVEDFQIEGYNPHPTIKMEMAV
# Description: Initial effects of po 1-mer treatment were noticed after about 5 weeks. Overall, however, tumors continued to grow after this point, but at a slower rate than the control. For instance, at 8 weeks post po 1-mer treatment, the average tumor weight of xenografted human hepatomas in nude CD-1 mice was about 7 g, whereas the average tumor weight of the saline control was about 15 g. Histological analysis was performed after 8 weeks in order to compare the tumors of the control cohort with the tumors of po 1-mer-treated nude mice. […] This weight loss may then be due to the tumor burden, rather than the therapeutic treatment, and was continued through week 8.
# After the treatment was completed, tumors were analyzed both histologically and for TS activity. […] Therefore, it can be deduced that increasing the dose of po 1-mer increased the efficacy without increasing systemic toxicity.
smiles,measurement,setting,value
"CC(=O)N[C@H]1[C@H](OCCCCCCNC(=O)CC[C@H](NC(=O)CC[C@H](NC(=O)[C@H](Cc2ccc(O)cc2)NC(=O)C2CCC(CN3C(=O)CC(SCCCCCCOP(=O)(O)OC[C@H]4O[C@@H](n5cc(F)c(=O)[nH]c5=O)C[C@@H]4O)C3=O)CC2)C(=O)NCCCCCCO[C@@H]2O[C@H](CO)[C@H](O)[C@H](O)[C@H]2NC(C)=O)C(=O)NCCCCCCO[C@@H]2O[C@H](CO)[C@H](O)[C@H](O)[C@H]2NC(C)=O)O[C@H](CO)[C@H](O)[C@@H]1O (some centres unmarked) [po 1-mer, YEE(ahGalNAc)3-SMCC-poFU]",cellular uptake,"[1]; 1 μM, 30 min",5 pmoles/million cells
same,cellular uptake,"[1]; 1 μM, 480 min",24.75 pmoles/10^6 cells
same,cellular uptake (peak),"[1]; 1 μM, 480 min",25 pmoles/million cells
same,cellular uptake,"[1]; 2 μM, 480 min",about 26 pmole/10^6 cells
same,maximal cellular uptake,[1]; 4 μM,36 pmoles/million cells
same,maximum cellular uptake,"[1]; 4 μM, 480 min",about 36 pmoles/10^6 cells
same,maximal cellular uptake,[1]; 8 μM,43 pmoles/million cells
same,cellular uptake,"[1]; 8 μM, 120 min",35 pmoles/10^6 cells
same,maximum cellular uptake,"[1]; 8 μM, 480 min",~42 pmoles/10^6 cells
same,Average Peak area,[2]; 0 min,17.78
same,Trial Peak area,"[2]; 0 min, listed as po 1-mer Conjugate",17.65 and 17.92
same,Average Peak area,[2]; 60 min,13.77
same,Trial Peak area,"[2]; 60 min, listed as po 1-mer Conjugate",15.11 and 12.43
same,Average Peak area,[2]; 180 min,10.17
same,Trial Peak area,"[2]; 180 min, listed as po 1-mer Conjugate",9.356 and 10.9908
same,Average Peak area,[2]; 360 min,11.4
same,Trial Peak area,[2]; 360 min,11.4
same,half-life at 480 µM,"[2]; human, serum, HPLC (a), read-out: serum t1/2",9.62 h
same,"TS activity, COUNTS/MG PROTEIN",[3]; weekly 10 mg/kg,19718 counts/mg protein
same,"TS activity, COUNTS/MG PROTEIN",[3]; weekly 15 mg/kg,18989 counts/mg protein
